In one experiment the test system is human PBMC. Briefly: Decitabine-stimulated human PBMC assay (IFN-β, cell viability). The experiment is classed as cell-based. As to conditions: anti-CD3/anti-CD28, decitabine 10 μM, 5 days. The procedure: EasySep buffer (32 mL, […] Technologies, cat. #20144) was used to dilute 8 mL of LRSC buffy coat (from fresh Leukopak) with gentle mixing. The diluted buffy coat (20 mL) was transferred into each of two SepMate 50 tubes, and the tubes were filled with 15 mL of Lyphoprep ([…], cat. #07851) density gradient. The SepMate tubes were then centrifuged at 1200G for 10 minutes at room temperature with the brake on. The top layer of supernatant was collected in SepMate tubes by quickly pouring it into a new 50 mL conical tube. The PBMCs were washed with EasySep buffer ×2 by centrifuging at 300G for 5 minutes. The cells were resuspended in 30 mL of EasySep and centrifuged at 100G for 5 minutes with the brake off, and the platelets were removed. The cells were then resuspended in 6 mL of 1×RBC lysis buffer (Invitrogen) and incubated at 37° C. for 5 minutes. 25 mL of EasySep buffer was then mixed into the tube and centrifuged at 300G for 5 minutes. The cells were resuspended in 10 mL of EasySep buffer and the cells were then counted with Cellometer (AO/PI). The PBMCs were resuspended in RPMI1640 (ThermoFisher)^+10% FBS (HyClone)^+μ/s at 3×10^6/mL. The PBMCs (100 μL, 300 k PBMCs) were then seeded in a 96-well flat bottom microplate (Corning) that had been precoated with 100 μL of anti-CD3 antibody (10 μg/mL in PBS, Biolegend) or PBS at 4° C., one day before the assay was commenced.
To each well the following solutions were added 1) 100 μL of cells (final cell number per well is 3×10^5 cell/well); 2) 25 μL of anti-CD28 antibody at 6×(5 μg/mL final concentration, Biolegend); 3) 25 μL of decitabine at 6×(10 μM final concentration); and 4) Compound in DMSO was dispensed directly into each well with a d300e digital dispenser (Tecan). The final concentration of DMSO for each well was normalized to 0.3%. The plate was incubated at 37° C. without any agitation for 5 days. Samples were collected 120 hours after incubation to determine IFN-0 and IL-2 levels using a U-PLEX Human IFN-β Assay Sector (5PL) (MSD, cat. #K151VIK-2).
After 5 days, the plate was spun down at 100×G for 5 minutes. Supernatants (100 μL) were collected for interferon β(IFN-β) analysis using the MSD assay noted above, and any residual supernatant was stored at −80° C.

For another experiment, the system named is THP1 Dual TREX1 KO cells. The experiment in a line: THP1 TREX1 KO inhibition assay, combination dosing (stampidine and Compound 2). As to conditions: combination of stampidine and Compound 2; k>0 denotes synergy. The experiment is classed as cell-based. As for the experimental part:
Exemplary compounds were tested to determine the effect of combined dosing of two compounds on the type 1 interferon response in THP1 Dual TREX1 KO cells treated with 5-aza-2′-deoxycytidine. Assay procedures and results are described below.
THP1 Dual TREX1 KO cells were purchased from InvivoGen. The THP1-Dual™ KO-TREX1 cells were cultured in RPMI 1640, 10% heat-inactivated fetal bovine serum, 25 mM HEPES, 10 μg/mL blasticidin, and 100 μg/mL Zeocin. THP1-Dual™ KO-TREX1 cells were treated with a dose titration of test compound in the presence of 1 μM 5-aza-2′-deoxycytidine (Sigma, cat #189825). Type 1 Interferon and cell viability were assessed after five days of treatment.
Stock solution of test compounds stampidine and Compound 2 were prepared in DMSO followed by a three-fold dilution in DMSO. […]
THP1-Dual™ KO-TREX1 cells were treated with 1 μM 5-aza-2′-deoxycytidine. […] Luminescence was detected on a plate reader according to manufacturer's instructions. […]
The remaining cells were assessed for cell viability by adding 30 μl of CellTiter-Glo (Promega, G9683) solution to each well, and placed on a shaker for 10 minutes at room temperature. Luminescence was detected on a plate reader, according to manufacturer's instructions. […]

For the molecule `Nc1ccn([C@H]2C[C@H](O)[C@](CO)(CCl)O2)c(=O)n1` [Compound 2, 4-amino-1-((2R,4S,5R)-5-(chloromethyl)-4-hydroxy-5-(hydroxymethyl)tetrahydrofuran-2-yl)pyrimidin-2(1H)-one], in the experiment on human PBMC, the IFN-β level entry was “inhibition of IFN-0”. Further, in the experiment on THP1 Dual TREX1 KO cells, the “best BRAID fit k” value is reported as 2.00 (0.583-3.64).

For the origin of these results see patent US20230295212A1 (ROME Therapeutics, Inc., priority 2022, published 2023).
